Measured values reported in patent US6706686B2, “Inhibition of histone deacetylase as a treatment for cardiac hypertrophy” (The Regents of the University of Colorado, priority 2001, dated 2004).
Entries after “also recorded” stand apart in the source; their conditions may differ.

How the values were obtained:
[1] = system: ANF promoter in neonatal rat cardiomyocytes; assay: ANF promoter transcription (luciferase) assay; format: cell-based; details: for activation of ANF promoter by phenylephrine: phenylephrine 100 μM, TSA 85 nM, NaBut 5 mM, HC-toxin 5 ng/ml; for ANF promoter activity, inhibitor alone: unstimulated cardiomyocytes
Method: (§1) FIGS. 3A-D. HDAC inhibitors block the activation of ANF reporter by phenylphrine without cytotoxicity. Neonatal rat cardiomyocytes were co-transfected with a total of 1 μg of the mouse 3 kb ANF promoter fragment and CMV-Lac Z plasmids. (FIG. 3A) The ANF promoter is minimally active in unstimulated cardiomyocytes. […] (FIG. 3B) Lac Z expression by the constitutive promoter CMV. Treatment with HDAC inhibitors augmented CMV activity with and without phenylephrine co-treatment. (FIGS. 3C and 3D) The graphs show the measurements of adenylate kinase activity remains constant in the medium after […] of culturing cardiomyocytes in the absence or presence of hypertrophic stimulants FBS, PE or ET-1.
Cardiomyocyte isolation. Hearts were harvested from 15-day timed-pregnant female Sprague-Dawley rats (Harlan, Houston, Tex.). After mincing in phosphate-buffered saline, cardiomyocytes were isolated from successive digestion fractions of 0.1% (w/v) Pancreatin (Sigma, St. Louis, Mo.) solution. Fractions were collected; resuspended in plating medium, pooled; and then plated for 2 hours to separate fibroblasts from cardiomyocyte population. Suspended cells were recollected and plated in 6-well dishes at 1×10^6 cells/well for transfection and immunofluorescence experiments, and 2×10^6 cells in 10 cm dishes for RNA analysis.
(§2) Transcription assay. Twenty-four hours after plating, cells were transfected with total of 1 μg/ml for 5 hrs using Lipofectamine Plus reagent (Invitrogen, Carlsbad, Calif.). Transfected cells were incubated 24 hrs then treated for an additional 24 hrs. Cells were lysed and their lysates assayed with the Luciferase Assay System (Promega, Madison, Wis.) for luminescence using Lucysoft 2 luminometer (Rosys Anthos, New Castle, Del.).

[2] = system: CMV-Lac Z reporter in neonatal rat cardiomyocytes; assay: CMV-Lac Z reporter (specificity control); format: cell-based; details: inhibitor alone or together with phenylephrine
Method: as §1, §2

[3] = system: ANF, αSK-actin, αMyHC, βMyHC RNA in cardiomyocytes; assay: RNA dot blot of fetal gene program; format: cell-based, rat; details: phenylephrine 100 μM, TSA 85 nM, sodium butyrate 5 mM, HC-toxin 5 ng/ml
Method: FIGS. 5A-B. Treatment of cardiomyocytes with HDAC inhibitors blocks the fetal gene program associated with cardiomyocyte hypertrophy. […] The graphs represent three or more independent experiments.
Dot Blot analysis. Total RNA was isolated from cardiomyocytes that were either untreated, treated with phenylephrine, treated with TSA, or co-treated with phenylephrine and TSA. One microgram of RNA was blotted onto Nitrocellulose (Bio-Rad, Hercules, Calif.) and hybridized at 50° C. for 14 hrs with end-labeled oligos. (ANF, 5′-[…]-3, SEQ ID NO 1; αSK actin5′-[…]-3′, SEQ ID NO2; αMyHC,5′[…]-3′, SEQ ID NO 3; βMyHC5′-[…]-3′, SEQ ID NO 4; GAPDH5′-[…]-3′, SEQ ID NO 5). The blots were washed twice in 2×SSC/0.5% SDS solution and exposed to film (Kodak, Rochester, N.Y.) or phosphoimager (Amersham Bioscience, Sunnyvale, Calif.). The intensity of the hybridization of the probes was measured using ImageQuant® (Amersham Bioscience, Sunnyvale, Calif.).

transformed cells = details: Marks et al. (2000); cited from earlier work
HDAC = details: Marks et al. (2000); cited from earlier work
cultured cardiomyocytes = assay: Adenylate kinase release cytotoxicity assay; format: cell-based; details: increasing doses: TSA up to 100 nM, sodium butyrate up to 25 nM
Method: as §1
Inventors then examined whether increasing doses of TSA and sodium butyrate were cytotoxic to cultured cardiomyocytes. To determine cell mortality, the release of adenylate kinase from cardiomyocytes into the culture medium was assayed. This assay is a known measurement for the integrity of the cell membrane: membranes become permeable in dying cells causing the cells release adenylate kinase.

[4] = system: ANF in neonatal cardiomyocytes; assay: ANF chemiluminescence detection, dose response; format: cell-based, rat
Method: FIGS. 4A-C. […] As in the transfection experiments, phenylephrine (100 µM) induces ANF expression over three-fold. […] (FIGS. 4B and 4C) The graphs show a reduction of the chemiluminent detection of ANF in the culture medium with increasing concentrations of the HDAC inhibitors TSA (FIG. 4B) and sodium butyrate (FIG. 4C) when co-cultured with the hypertrophic stimulants FBS, PE or ET-1.
Chemilumenescence. Neonatal cardiomyocytes were seeded onto 96-well plates and treated for 72 hrs. The cells were washed twice in 1×PBS, fixed in 4% paraformaldehyde/1×PBS, and permeabilized with 0.1% Triton-X100. After blocking, the cells were incubated 1 hr. with 10 μg/ml monoclonal anti-ANF antibody (Biodesign). The wells were washed twice with 1% BSA/1× PBS and then incubated for 1 hr. with goat anti-mouse IgG-Fc-HRP (Jackson Labs, […]) at 1:1000 in 1× PBS/1% BSA. Cells were washed twice with 1% BSA/1×PBS, twice with 1× PBS, then blotted dry. Luminol (Pierce, Rockford, Ill.) was added and the chemiluminescence was detected in a Fusion Plate Reader (Perkin Elmer/Packard).

cardiomyocytes = assay: Protein synthesis (tritiated leucine, S6 ribosomal protein); format: cell-based, rat
Method: FIG. 6. The effects of TSA treatment on the reorganization of the sarcomeres and protein synthesis. […] The graphs on the right show the content of S6 ribosome protein in cardiomyocytes after 24 hours co-treatment with PE and increasing concentrations of TSA or with serum and increasing concentrations of TSA.
Protein synthesis. Cardiomyocytes were incubated with (1.0 μCi/ml; 172 Ci/mmol sp. activity) tritiated-leucine (ICN Biochemicals, Inc., Irvine, Calif.) in treated RPMI media (Invitrogen, Carlsbad, Calif.). After 6 hrs incubation, the cells were washed twice with 1× PBS, then incubated in 10% TCA on ice for 30 min. Afterwards, the cells were washed twice with 5% TCA, once with water, and then lysed in […]. Lysates were measured in one-sixth volume of scintillation fluid by a scintillation counter (Beckman, Fullerton, Calif.).
S6 Ribosomal protocol. After blocking, cells were incubated in 1% BSA/1× PBS containing 50 μg/ml anti-S6 protein (Cell Signaling, […]) for 1 hr. After washing, the cells were incubated with IgG-HRP (Jackson Labs, […]) at a 1:400 dilution. The cells were then washed twice in 1% BSA/1× PBS, in 1× PBS, then blotted dry. Luminol (Pierce, Rockford, Ill.) was added and the chemiluminescence was detected in a Fusion reader (Perkin-Elmer/Packard).

Structure (SMILES)	activation of ANF promoter by phenylephrine [1]	ANF promoter activity, inhibitor alone [1]	transcriptional activity of CMV-Lac Z reporter [2]	phenylephrine-induced endogenous ANF RNA expression [3]	effect on transformed cells (transformed cells)	further results
C[C@@H]1NC(=O)[C@H]2CCCN2C(=O)[C@H](CCCCCC(=O)[C@@H]2CO2)NC(=O)[C@@H](C)NC1=O [HC-toxin]	did block the promoter's activation by phenylephrine treatment completely; also recorded: prevented the activation of the ANF promoter	did not activate the ANF promoter	increased the transcriptional activity of the CMV-Lac Z reporter	prevented the phenylephrine-induced ANF response; also recorded: blocks the accumulation of ANF message		
O=C(CCCCCCC(=O)Nc1ccccc1)NO [SAHA, suberoylanilide hydroxamic acid]					induce growth arrest, differentiation, or apoptotic cell death of transformed cells	
O=C(CCCCCCC(=O)Nc1cccnc1)NO [pyroxamide, suberoyl-3-aminopyridineamide hydroxyamic acid]					induce growth arrest, differentiation, or apoptotic cell death of transformed cells	inhibition of HDAC (HDAC): potent inhibitors of HDAC in vitro and in vivo
CCCC(=O)[O-].[Na+] [sodium butyrate]	did block the promoter's activation by phenylephrine treatment completely	did not activate the ANF promoter	increased the transcriptional activity of the CMV-Lac Z reporter	blocks the accumulation of ANF message		adenylate kinase in the culture medium (cell death) (cultured cardiomyocytes): did little to increase adenylate kinase; activation of ANF promoter by phenylephrine ([1]; listed as NaBut): prevented the activation of the ANF promoter; minimal concentration that inhibited the hypertrophic response (ANF) of each growth stimulant ([4]; FBS, PE, ET-1): 5 mM; induction of ANF expression by FBS, PE and ET-1 ([4]; increasing concentrations): countered the induction of ANF expression; ANF expression at very low doses ([4]; very low doses (0.2 nM printed for sodium butyrate)): near two-fold increase; phenylephrine-stimulated protein synthesis, 6 hours (cardiomyocytes; 6 hours co-culture with phenylephrine): had little effect on the stimulation of protein synthesis; protein synthesis induced by PE or serum, 24 hrs (cardiomyocytes; 24 hrs co-treatment): antagonized the protein synthesis normally induced by PE or serum in a dose-dependent manner; phenylephrine-induced endogenous ANF RNA expression ([3]; listed as NaBut): prevented the phenylephrine-induced ANF response
